Data taken from US11994513B2, “Diagnostic and prognostic methods for estrogen-induced cancers” (The University of Newcastle, priority 2018, dated 2024).

Tests used:
ALPPL2 mRNA expression = assay: Quantitative real-time PCR of ALPPL2 mRNA in hormone-treated Ishikawa organoids; assay type: cell-based, human; conditions: FIG. 2C
Protocol: (§1) 5,000 Ishikawa cells/well were seeded in triplicate in 100 μL medium onto 96-well tissue culture plates coated with a thin layer of reduced growth factor basement membrane extract (Cultrex® RGF BME: Trevigen) and were allowed to form organoids. After 24 hours, the organoids were subjected to desired hormonal treatments: 10 nmol/L estrogen ((β-Estradiol, Sigma #E8875) and 100 nmol/L progesterone (Medroxyprogesterone 17-acetate, Sigma #M1629). The culture medium containing desired hormone concentration was changed on every 48 hours. On day 7, colony size was measured and images were photographed using JuLI™ Stage Real-Time Cell History Recorder (NanoEnTek) in an incubator at 37° C. humidified with 5% CO2. 72 hours post-treatment, cells were incubated with CellTiter-Glo® 3D Reagent (Promega) for 30 minutes at room temperature and luminescence signal was recorded using the FLUOstar OPTIMA (BMG Labtech). […]
Total RNA was isolated from estrogen or progesterone treated mouse uterus and Ishikawa cells using RNeasy Mini kit (Qiagen) following manufacturer's instructions. […] Quantitative real-time PCR (Q-PCR) was performed using RT^2 SYBR Green ROX qPCR Mastermix (Qiagen) on a 7900 HT FAST Thermocycler (Applied Biosystems) through a pre-incubation step, and 40 amplification cycles (including denaturation, annealing and extension segments). […]

mice uteri = assay: Hormone pellet treatment of ovariectomized mice: uterine histology and ALPPL2 immunohistochemistry; assay type: in vivo, C57BL/6 mice
Ishikawa organoids = assay: 3D organoid formation assay: colony size and proliferation (CellTiter-Glo 3D); assay type: cell-based, human
Protocol: The human endometrial adenocarcinoma cell line Ishikawa (Sigma #99040201) was cultured in MEM (HyClone) medium supplemented with 5% heat-inactivated FBS (Bovogen Biologicals), 2 mmol/L L-glutamine (HyClone), and antibiotics (50 U/mL penicillin, 50 mg/L streptomycin; Gibco) in a humidified atmosphere at 37° C. containing 5% CO2. Cell line authentication was done by short tandem repeat (STR) DNA profiling method and mycoplasma contamination in cells was routinely conducted using MycoAlert™ Plus Mycoplasma detection kit (Lonza). 5,000 Ishikawa cells/well were seeded in triplicate in 100 μL medium onto 96-well tissue culture plates coated with a thin layer of reduced growth factor basement membrane extract (Cultrex® RGF BME: Trevigen) and were allowed to form organoids. After 24 hours, the organoids were subjected to desired hormonal treatments: 10 nmol/L estrogen ((β-Estradiol, Sigma #E8875) and 100 nmol/L progesterone (Medroxyprogesterone 17-acetate, Sigma #M1629). The culture medium containing desired hormone concentration was changed on every 48 hours. On day 7, colony size was measured and images were photographed using JuLI™ Stage Real-Time Cell History Recorder (NanoEnTek) in an incubator at 37° C. humidified with 5% CO2. 72 hours post-treatment, cells were incubated with CellTiter-Glo® 3D Reagent (Promega) for 30 minutes at room temperature and luminescence signal was recorded using the FLUOstar OPTIMA (BMG Labtech). Ishikawa 3D organoids were fixed in 4% paraformaldehyde (Electron Microscopy Sciences, ProSciTech) for 20 minutes and processed for immunofluorescence, as described previously (Sahoo et al, Oncotarget, 2017, 8:71400-17).

ALPPL2 protein = assay: Western blot of ALPPL2 protein in hormone-treated Ishikawa cells and organoids; assay type: cell-based, human; conditions: Ishikawa cells and organoids treated with E2 and/or P4, FIGS. 2D and 2E
Protocol: as §1
Human endometrial cancer samples, mouse uterine tissue, and Ishikawa cells were lysed in ice-cold RIPA (radioimmunoprecipitation assay) buffer (50 mmol/L Tris-HCl pH 7.5, 150 mmol/L NaCl, 1% NP-40, 0.5% Sodium deoxycholate, 0.1% SDS) containing protease and phosphatase inhibitors (Sigma). […] The membrane was washed again in TBS-T, developed using a chemiluminescent substrate (Millipore) for detection of HRP and the protein bands were detected by chemiluminescence (Fujifilm LAS-4000). […]

## CC(=O)[C@H]1CC[C@H]2[C@@H]3CCC4=CC(=O)CC[C@]4(C)[C@H]3CC[C@]12C [P4, progesterone]
ALPPL2 mRNA expression; P4 100 nmol/L with E2 10 nmol/L
  effect on E2-induced ALPPL2 mRNA upregulation: inhibited this effect
Mice uteri; E2 and P4 pellets for 3 months, FIG. 3A
  effect on E2-induced ALPPL2 expression in uterus (immunohistochemical analysis): attenuated the effect of E2
Ishikawa organoids; P4 100 nmol/L with E2 10 nmol/L, FIGS. 2A and 2B
  mitogenic action of E2 on Ishikawa organoids (size and proliferation): counterbalanced

## β-Estradiol [E2]
ALPPL2 protein
  ALPPL2 protein expression (western blot, total cell lysate): Overexpression of ALPPL2
ALPPL2 mRNA expression; E2 treated organoids, 10 nmol/L
  ALPPL2 mRNA expression: significantly upregulated
Mice uteri; E2 pellet for 3 months, FIG. 3A
  ALPPL2 expression in uterus (immunohistochemical analysis): increase in ALPPL2 expression
Mice uteri; E2 pellet for 3 months, compared to E2 and P4 treated uteri, data not shown
  endometrial hyperplasia (histological analysis): increased endometrial hyperplasia
Ishikawa organoids; E2 10 nmol/L, 3D culture, 72 hours post-treatment, FIG. 2B
  proliferation of Ishikawa organoids: increased
Ishikawa organoids; E2 10 nmol/L, 3D culture, day 7, FIG. 2A
  size of Ishikawa organoids: increased
